In PubChem BioAssay (NCI):
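1) Cells in 96-well plates. 2) Compound, 48 h, 5 concentrations. 3) Linear interpolation between surrounding doses. 4) Unreached endpoint = highest concentration. Definition used: TGI = concentration required for complete inhibition of growth.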

Columns and labels:
Test in all cases: growth of human tumour cells (NCI), 48 h
MDA-N = test system: MDA-N
M14 melanoma = test system: M14 melanoma
SR leukemia = test system: SR leukemia
MCF7 breast = test system: MCF7 breast
TK-10 renal = test system: TK-10 renal
CAKI-1 renal = test system: CAKI-1 renal
HL-60(TB) leukemia = test system: HL-60(TB) leukemia
SK-MEL-5 melanoma = test system: SK-MEL-5 melanoma
HCT-15 colon = test system: HCT-15 colon
SF-268 CNS = test system: SF-268 CNS
NCI-H460 lung = test system: NCI-H460 lung
SNB-75 CNS = test system: SNB-75 CNS
HCT-116 colon = test system: HCT-116 colon
SF-539 CNS = test system: SF-539 CNS
KM12 colon = test system: KM12 colon
IGROV1 ovarian = test system: IGROV1 ovarian
HS 578T breast = test system: HS 578T breast
NCI-H23 lung = test system: NCI-H23 lung
SF-295 CNS = test system: SF-295 CNS
DU-145 prostate = test system: DU-145 prostate
SK-OV-3 ovarian = test system: SK-OV-3 ovarian
HOP-92 NSCLC = test system: HOP-92 NSCLC
OVCAR-3 ovarian = test system: OVCAR-3 ovarian
SN12C renal = test system: SN12C renal
MOLT-4 leukemia = test system: MOLT-4 leukemia
UACC-257 melanoma = test system: UACC-257 melanoma
SW-620 colon = test system: SW-620 colon
A549 NSCLC = test system: A549 NSCLC
MDA-MB-435 = test system: MDA-MB-435
EKVX NSCLC = test system: EKVX NSCLC
BT-549 breast = test system: BT-549 breast
U251 CNS = test system: U251 CNS
HOP-62 NSCLC = test system: HOP-62 NSCLC
NCI-H522 lung = test system: NCI-H522 lung
786-0 renal = test system: 786-0 renal
UACC-62 melanoma = test system: UACC-62 melanoma
ACHN renal = test system: ACHN renal
A498 renal = test system: A498 renal
HCC-2998 colon = test system: HCC-2998 colon
RXF 393 renal = test system: RXF 393 renal
UO-31 renal = test system: UO-31 renal
OVCAR-5 ovarian = test system: OVCAR-5 ovarian
HT29 colon = test system: HT29 colon
COLO 205 colon = test system: COLO 205 colon
OVCAR-4 ovarian = test system: OVCAR-4 ovarian
MALME-3M melanoma = test system: MALME-3M melanoma
OVCAR-8 ovarian = test system: OVCAR-8 ovarian
CCRF-CEM leukemia = test system: CCRF-CEM leukemia
SK-MEL-28 melanoma = test system: SK-MEL-28 melanoma
RPMI-8226 leukemia = test system: RPMI-8226 leukemia
PC-3 prostate = test system: PC-3 prostate
SNB-19 CNS = test system: SNB-19 CNS
K-562 leukemia = test system: K-562 leukemia
LOX IMVI melanoma = test system: LOX IMVI melanoma
NCI-H226 lung = test system: NCI-H226 lung
NCI/ADR-RES ovarian = test system: NCI/ADR-RES ovarian
MDA-MB-231 breast = test system: MDA-MB-231 breast

Q: How did the TGI (MDA-N) turn out when `CCCCCCCC(=O)N1C2CC3CCC2(CS1(=O)=O)C3(C)C` (stereo not given) was run?
A: The TGI was 72 µM.

Q: And the TGI (M14 melanoma)?
A: The TGI was 41 µM.

Q: And the TGI (SR leukemia)?
A: The TGI was 40.8 µM.

Q: And the TGI (MCF7 breast)?
A: The TGI was 35.8 µM.

Q: And the TGI (TK-10 renal)?
A: Its TGI is > 100 µM.

Q: And the TGI (CAKI-1 renal)?
A: Its TGI is 61.7 µM.

Q: And the TGI (HL-60(TB) leukemia)?
A: Its TGI is 41.9 µM.

Q: And the TGI (SK-MEL-5 melanoma)?
A: Its TGI is 34.4 µM.

Q: And the TGI (HCT-15 colon)?
A: Its TGI is 26.7 µM.

Q: And the TGI (SF-268 CNS)?
A: Its TGI is > 100 µM.

Q: And the TGI (NCI-H460 lung)?
A: Its TGI is > 100 µM.

Q: And the TGI (SNB-75 CNS)?
A: Its TGI is > 100 µM.

Q: And the TGI (HCT-116 colon)?
A: The TGI was > 100 µM.

Q: And the TGI (SF-539 CNS)?
A: The TGI was 41.5 µM.

Q: And the TGI (KM12 colon)?
A: Its TGI is 74.8 µM.

Q: What about the TGI (IGROV1 ovarian) of the same compound?
A: The TGI was > 100 µM.

Q: And the TGI (HS 578T breast)?
A: The TGI was > 100 µM.

Q: What about the TGI (NCI-H23 lung) of the same compound?
A: Its TGI is > 100 µM.

Q: And the TGI (SF-295 CNS)?
A: Its TGI is 50.8 µM.

Q: What about the TGI (DU-145 prostate) of the same compound?
A: Its TGI is > 100 µM.

Q: What about the TGI (SK-OV-3 ovarian) of the same compound?
A: Its TGI is > 100 µM.

Q: What about the TGI (HOP-92 NSCLC) of the same compound?
A: The TGI was 68 µM.

Q: What about the TGI (OVCAR-3 ovarian) of the same compound?
A: Its TGI is > 10 µM.

Q: And the TGI (SN12C renal)?
A: Its TGI is 49.1 µM.

Q: What about the TGI (MOLT-4 leukemia) of the same compound?
A: Its TGI is 35.1 µM.

Q: And the TGI (UACC-257 melanoma)?
A: Its TGI is 68.6 µM.

Q: What about the TGI (SW-620 colon) of the same compound?
A: The TGI was 61.6 µM.

Q: And the TGI (A549 NSCLC)?
A: Its TGI is > 100 µM.

Q: And the TGI (MDA-MB-435)?
A: Its TGI is > 100 µM.

Q: What about the TGI (EKVX NSCLC) of the same compound?
A: Its TGI is > 100 µM.

Q: What about the TGI (BT-549 breast) of the same compound?
A: Its TGI is 71.6 µM.

Q: And the TGI (U251 CNS)?
A: The TGI was 69.9 µM.

Q: And the TGI (HOP-62 NSCLC)?
A: The TGI was 44.3 µM.

Q: And the TGI (NCI-H522 lung)?
A: The TGI was 48.5 µM.

Q: What about the TGI (786-0 renal) of the same compound?
A: The TGI was 31.7 µM.

Q: And the TGI (UACC-62 melanoma)?
A: Its TGI is 55.5 µM.

Q: And the TGI (ACHN renal)?
A: Its TGI is > 100 µM.

Q: What about the TGI (A498 renal) of the same compound?
A: The TGI was > 100 µM.

Q: What about the TGI (HCC-2998 colon) of the same compound?
A: Its TGI is 51.2 µM.

Q: What about the TGI (RXF 393 renal) of the same compound?
A: Its TGI is 31.8 µM.

Q: What about the TGI (UO-31 renal) of the same compound?
A: Its TGI is 52.4 µM.

Q: And the TGI (OVCAR-5 ovarian)?
A: The TGI was > 100 µM.

Q: What about the TGI (HT29 colon) of the same compound?
A: The TGI was > 10 µM.

Q: And the TGI (COLO 205 colon)?
A: Its TGI is 41.2 µM.

Q: What about the TGI (OVCAR-4 ovarian) of the same compound?
A: The TGI was > 100 µM.

Q: What about the TGI (MALME-3M melanoma) of the same compound?
A: Its TGI is 34 µM.

Q: What about the TGI (OVCAR-8 ovarian) of the same compound?
A: Its TGI is > 100 µM.

Q: What about the TGI (CCRF-CEM leukemia) of the same compound?
A: Its TGI is 44.8 µM.

Q: And the TGI (SK-MEL-28 melanoma)?
A: The TGI was > 100 µM.

Q: And the TGI (RPMI-8226 leukemia)?
A: The TGI was 41.5 µM.

Q: What about the TGI (PC-3 prostate) of the same compound?
A: The TGI was 69.1 µM.

Q: What about the TGI (SNB-19 CNS) of the same compound?
A: Its TGI is 76.5 µM.

Q: How did the TGI (MDA-N) turn out when `c1ccc2sc(C3(N4CCCCCC4)CCCCC3)cc2c1` was run?
A: Its TGI is 97.6 µM.

Q: What about the TGI (M14 melanoma) of the same compound?
A: Its TGI is 53.6 µM.

Q: And the TGI (K-562 leukemia)?
A: The TGI was 33.1 µM.

Q: What about the TGI (MCF7 breast) of the same compound?
A: Its TGI is 32.9 µM.

Q: And the TGI (TK-10 renal)?
A: Its TGI is 53.4 µM.

Q: And the TGI (CAKI-1 renal)?
A: Its TGI is > 100 µM.

Q: What about the TGI (HL-60(TB) leukemia) of the same compound?
A: The TGI was 40.9 µM.

Q: What about the TGI (SK-MEL-5 melanoma) of the same compound?
A: The TGI was 33.3 µM.

Q: And the TGI (HCT-15 colon)?
A: Its TGI is 53.6 µM.

Q: What about the TGI (SF-268 CNS) of the same compound?
A: The TGI was 52.5 µM.

Q: And the TGI (NCI-H460 lung)?
A: Its TGI is 45.1 µM.

Q: And the TGI (SNB-75 CNS)?
A: The TGI was 62.1 µM.

Q: What about the TGI (HCT-116 colon) of the same compound?
A: Its TGI is 52.1 µM.

Q: And the TGI (SF-539 CNS)?
A: The TGI was 46.1 µM.

Q: What about the TGI (KM12 colon) of the same compound?
A: The TGI was 31.8 µM.

Q: What about the TGI (IGROV1 ovarian) of the same compound?
A: Its TGI is > 100 µM.

Q: What about the TGI (HS 578T breast) of the same compound?
A: Its TGI is 44.7 µM.

Q: And the TGI (NCI-H23 lung)?
A: The TGI was 41.5 µM.

Q: What about the TGI (SF-295 CNS) of the same compound?
A: Its TGI is 59.1 µM.

Q: And the TGI (DU-145 prostate)?
A: Its TGI is > 100 µM.

Q: What about the TGI (LOX IMVI melanoma) of the same compound?
A: The TGI was 43.4 µM.

Q: What about the TGI (SK-OV-3 ovarian) of the same compound?
A: Its TGI is > 100 µM.

Q: And the TGI (HOP-92 NSCLC)?
A: Its TGI is 80 µM.

Q: What about the TGI (OVCAR-3 ovarian) of the same compound?
A: Its TGI is 38.6 µM.

Q: What about the TGI (SN12C renal) of the same compound?
A: The TGI was 43.7 µM.

Q: What about the TGI (MOLT-4 leukemia) of the same compound?
A: The TGI was 31.5 µM.

Q: What about the TGI (UACC-257 melanoma) of the same compound?
A: Its TGI is 50 µM.

Q: What about the TGI (SW-620 colon) of the same compound?
A: The TGI was 36.6 µM.

Q: What about the TGI (A549 NSCLC) of the same compound?
A: The TGI was > 100 µM.

Q: And the TGI (MDA-MB-435)?
A: Its TGI is 71.1 µM.

Q: What about the TGI (EKVX NSCLC) of the same compound?
A: The TGI was 43.9 µM.

Q: And the TGI (BT-549 breast)?
A: Its TGI is 61.2 µM.

Q: And the TGI (U251 CNS)?
A: Its TGI is 35 µM.

Q: What about the TGI (HOP-62 NSCLC) of the same compound?
A: Its TGI is 86.8 µM.

Q: What about the TGI (NCI-H522 lung) of the same compound?
A: The TGI was 36.4 µM.

Q: And the TGI (786-0 renal)?
A: The TGI was 42.9 µM.

Q: What about the TGI (UACC-62 melanoma) of the same compound?
A: The TGI was 45.7 µM.

Q: And the TGI (ACHN renal)?
A: The TGI was 83.8 µM.

Q: And the TGI (A498 renal)?
A: Its TGI is 36.8 µM.

Q: What about the TGI (HCC-2998 colon) of the same compound?
A: Its TGI is 29.4 µM.

Q: And the TGI (NCI-H226 lung)?
A: Its TGI is 42.9 µM.

Q: And the TGI (RXF 393 renal)?
A: The TGI was 33.4 µM.

Q: And the TGI (UO-31 renal)?
A: The TGI was 56.2 µM.

Q: What about the TGI (OVCAR-5 ovarian) of the same compound?
A: Its TGI is 37.4 µM.

Q: And the TGI (HT29 colon)?
A: Its TGI is 36.8 µM.

Q: What about the TGI (COLO 205 colon) of the same compound?
A: The TGI was 30 µM.

Q: And the TGI (OVCAR-4 ovarian)?
A: The TGI was > 100 µM.

Q: What about the TGI (OVCAR-8 ovarian) of the same compound?
A: Its TGI is > 100 µM.

Q: And the TGI (CCRF-CEM leukemia)?
A: The TGI was 33.3 µM.

Q: And the TGI (NCI/ADR-RES ovarian)?
A: The TGI was 55.2 µM.

Q: What about the TGI (SK-MEL-28 melanoma) of the same compound?
A: Its TGI is 55 µM.

Q: And the TGI (MDA-MB-231 breast)?
A: The TGI was 47.5 µM.

Q: What about the TGI (SNB-19 CNS) of the same compound?
A: Its TGI is 44.6 µM.
